1 compound from patent publication US20150133493A1, “COUMARIN-BASED COMPOUNDS FOR THE TREATMENT OF ALZHEIMER'S DISEASE AND CANCER” (Sloan-Kettering Institute for Cancer Research, priority 2008, published 2015) can be followed below.

Entries after “also recorded” stand apart in the source; their conditions may differ.

Test [1] deals with N2a mouse neuroblastoma cells that stably express Swedish-mutated APP. The experiment in a line: Cell-based assay of secreted Aβ42, Aβ40, Aβ38 in APPsw-N2A cells. The settings on record: 24 hrs, in words, CS-1 up to 30 μM. Here is the method: FIG. 3. Cellular evaluation of the coumarin-dimer CS-1 and its selective inhibition of Aβ42. Compounds were incubated with the APPsw-N2A mouse neuroblastoma cells for 24 hours and media were analyzed by biotinylated 4G8 and ruthenylated antibodies specific for each respective cleavage product. […] (d) Immunoprecipitation mass spectrometry analysis of CS-1 effect on secreted β-amyloid species. Aβ peptides were immunoprecipitated using 4G8 antibody and isolated with Protein G+/A agarose beads. Samples were analyzed by MALDI-MS. Samples shown are representative and each data point was performed in triplicate. (e) Cell-based Notch cleavage assay. HEK-293 cells were transfected with ΔE Notch construct and then Compound E and CS-1 were evaluated for their ability to inhibit γ-secretase-mediated Notch intracellular domain production. […] Western blot is representative and was performed in triplicate. (f) Effect of CS-1 on AICD production. N2A APPsw cell membrane was prepared and incubated with the indicated concentrations of CS-1 at 37° C. for 2 hours. The generated AICD and APP-CTFs were detected by Western Blotting using APPc antibody. Western blot is representative and was performed in triplicate.
We next set out to determine if the selective inhibition of Aβ42 was maintained in a cell-based system for APP processing. First, we compared our lead compound CS-1 (FIG. 3a) to Compound E (FIG. 3b) and the GSM compound indomethacin (FIG. 3c). N2a mouse neuroblastoma cells that stably express Swedish-mutated APP substrate were treated with the indicated compounds for 24 hrs at 37° C. Following 24 hr incubation period, the medium was collected from the cells and assayed for secreted Aβ42, Aβ40, and Aβ38. […] The result for indomethacin mirrored those findings by Kukar et al. whereby a different cell-based system was utilized (17), further validating our assay system for analysis of these Aβ species. […] This may reflect subtle variations between the cellular and in vitro conformations of γ-secretase. Nevertheless, the cell-based studies confirmed that CS-1 maintains a preference for inhibition of the γ-secretase mediated production of Aβ42 over Aβ40 or Aβ38, which is distinct to previously reported GSMs (17) and inhibitors (14-15, 18).
Cell membranes and solubilized γ-secretase were prepared as described previously (36). The in vitro and cell γ-secretase assays detecting either Aβ38, Aβ40, or Aβ42 cleavage were performed similar as previously described (21, 36). Cleaved product was detected using ruthenylated antibodies that recognize specific APP cleavage sites (Aβ31-38*, G2-10*, or G2-11* antibody for Aβ38, Aβ40, or Aβ42 respectively). The Km and Vmax in the presence and absence of γ-secretase inhibitors were analyzed by non-linear curve fit using the software SigmaPlot 8.0 with the Michaelis-Menten equation (v=Vm [S]/(Km+[S]; v: initial rate; Vm: maximum velocity; Km: the Michaelis-Menten constant, S: substrate).

The test system of test [2] is HEK-293 cells transfected with ΔE Notch construct. Kind of test: Cell-based Notch cleavage assay (NICD production). The settings on record: HEK-293, ΔE Notch, 24 hrs; Western blot; CS-1 up to 30 μM. Here is the method:
FIG. 3. Cellular evaluation of the coumarin-dimer CS-1 and its selective inhibition of Aβ42. Compounds were incubated with the APPsw-N2A mouse neuroblastoma cells for 24 hours and media were analyzed by biotinylated 4G8 and ruthenylated antibodies specific for each respective cleavage product. […] (d) Immunoprecipitation mass spectrometry analysis of CS-1 effect on secreted β-amyloid species. Aβ peptides were immunoprecipitated using 4G8 antibody and isolated with Protein G+/A agarose beads. Samples were analyzed by MALDI-MS. Samples shown are representative and each data point was performed in triplicate. (e) Cell-based Notch cleavage assay. HEK-293 cells were transfected with ΔE Notch construct and then Compound E and CS-1 were evaluated for their ability to inhibit γ-secretase-mediated Notch intracellular domain production. […] The generated AICD and APP-CTFs were detected by Western Blotting using APPc antibody. […]
We next determined the ability of CS-1 to suppress cellular γ-secretase activity for Notch1 cleavage. […]
ΔE Notch or empty pcDNA3.1(−) construct was transfected into HEK-293 cells in a 6-well format using Lipofectamine reagent, following manufacturer's instructions. […] Samples were then centrifuged at 13,000 rpm's at 4° C. and the supernatent was collected and analyzed by Western analysis using either anti-Myc antibody at a 1:1000 dilution or anti-NICD-1 SM320 at a 1:500 dilution.
On the technique in general: A western blot detects proteins with antibodies after separation by electrophoresis.

As for `C[C@H](NC(=O)Cc1cc(F)cc(F)c1)C(=O)N[C@H]1N=C(c2ccccc2)c2ccccc2N(C)C1=O` [Compound E], in test [1], the “effect on secreted Aβ38 production” value was “no inhibitory selectivity; also recorded: inhibited the production of all three β-amyloid species with equal potency”, the “effect on secreted Aβ40 production” value was “no inhibitory selectivity; also recorded: inhibited the production of all three β-amyloid species with equal potency” and the “effect on secreted Aβ42 production” value is recorded as “no inhibitory selectivity; also recorded: inhibited the production of all three β-amyloid species with equal potency”. In test [2], the “effect on Notch intracellular domain (NICD) production” value is given as “able to prevent production of NICD; also recorded: effectively blocked all production”.
